Measurements from patent US12571791B2, “Methods for evaluating cardiac safety of drug using cardiomyocytes derived from human stem cells” (NEXEL CO., LTD., priority 2021, dated 2026).

System: human stem cell-derived cardiomyocytes
Procedure: First, step G-1, replaces the maintenance medium in the MEA plate that has undergone the 3rd incubation step (step F-3) with a fresh maintenance medium, and places the MEA plate into the cell culture incubator at 37° C. and 5% CO2 for 3 to 5 hours (preferably 3 hours) for stabilization of cells.
Next, the first set of measurement values on beat rate, spike amplitude, and field potential duration of the human stem cell-derived cardiomyocytes are taken (step G-2) with the MEA measurement device for the MEA plate that has undergone cell stabilization step (step G-1).
After the completion of the first measurement, a portion of the maintenance medium, which corresponds to 1/10 of the total volume in the well, is removed from wells of the MEA plate that has undergone the stabilization process. […]
Here, raw files stored in the MEA measurement device program are loaded, and the desired section of the data is re-recorded and saved as a CSV file. Then the drug's effect on the field potential of cardiomyocytes is evaluated by the changes in the reaction parameter, based on the first and second measurement values which include beat interval, spike amplitude, and field potential duration, to various concentrations of the drug.
In addition, the cardiac toxicity of a drug can be determined through changes in FPDcF and spike amplitude. […]

Cc1cccc(C)c1OCC(C)N (stereo not shown) [Mexiletine]
change in spike amplitude: decrease in the spike amplitude according to the drug concentration
